The test system of series [1] is streptozotocin-induced diabetic rats. As to conditions: cited from earlier work.
The conditions of series [2]: cited from earlier work.
Series [3] in a line: Cytotoxic effect on Human Foreskin fibroblasts (SRB). It is filed as cell-based. Conditions: HFF-1 human foreskin fibroblasts, HFF-1 cells. As for the experimental part: However, at high concentrations, they can be harmful to cells. For humans, doses less than 100 mg/day are considered safe. […] Therefore, we conducted cytotoxicity assays on Human Foreskin fibroblasts (HFF-1) and an AOT on female Wistar rats to assess their safety.
In a 96-well plate, 7000 cells per well of Human Foreskin fibroblasts (HFF-1) were cultured. […] Untreated cells were also included as a negative control. At the end of the incubation period, the cell contents were precipitated with 50 µL of a 50% aqueous solution of trichloroacetic acid (TCA) at 4 °C for 1 h. The supernatant was discarded and washed 5 times with distilled water. Afterward, the plates were allowed to dry at room temperature. The cell contents were incubated with 100 µL of a 0.04% sulforhodamine B (SRB) solution for 1 h at room temperature. The excess SRB was removed by washing with a 1% aqueous acetic acid solution. […] With the data obtained, the viability of treated cells was calculated by comparing the control without treatment. CC50 value was determined by employing BioStat Pro 5.9.8 software (AnalystSoft Inc., Brandon, FL, USA).

Series [4] deals with streptozotocin-induced diabetic rats. The series can be described thus: Weekly fasting glucose in streptozotocin-induced diabetic rats. In kind it is in vivo, Wistar rat. Conditions: after 7 and 14 days of treatment (weeks 6 and 7). As for the experimental part:
(§1) After a week of acclimation, 35 male Wistar rats were given a single intraperitoneal dose of STZ (Sigma Chemical Co. Toluca, Estado de México, Mexico) at a dosage of 45 mg/kg of body weight, after fasting for 12 h overnight with free access to water. To prevent initial drug-induced hypoglycemia mortality, these animals were given a 10% sucrose solution 24 h after administration. STZ was dissolved in 0.1 M of sodium citrate buffer (pH 4.5) and administered in a final volume of 5 mL/kg. A week after STZ injection, diabetes in streptozotocin rats was confirmed by measuring fasting blood glucose (by glucose oxidase method). Animals with a blood glucose (tail vein) above 126 mg/dL were considered diabetic and used for the experiment to create groups 2, 3, 4, 5, 6, and 7 [1, 13]. Blood glucose levels were measured using a glucometer (Accu-Chek Active, Roche, Mannheim, Germany) and reactive strips (Accu-Chek Active Glucose test strips, Roche). The presence of hyperglycemia and insulin level confirmed a model very similar to T2D in humans. For the pharmacological study, the final number of animals was 35 male rats, with 3 rats being sacrificed during the treatment stage. One was administered with FC-114 and two with acarbose. The first rat was damaged during oral glucose administration in the OGTT at week 5, and the other rats had gastrointestinal complications in week 7.
(§2) The diabetic animals in group 2 (untreated) were given 4% v/v aqueous EtOH solution (vehicle of treatments) in a volume of 6.5 mL/kg body weight. The other groups (3–7) received different treatments for 14 days (weeks 5 to 7). […] All of the treatments were at equimolar doses of PIO and adjusted to the weekly weight of each rat. […] The commercial PIO tablet (30 mg) was crushed in 7.5 mL of vehicle and given to each animal in 4.0 mg/mL of suspension. The FC-114 and FC-122 suspensions were created at 6.2 and 6.0 mg/mL, respectively. The commercial acarbose tablet (50 mg) was crushed in 7.5 mL of the vehicle and given to each animal in a suspension of 6.6 mg/mL. Each suspension was used within 2 days of its preparation, and the administration volume was near to 2.5 mL for each rat.

The test system is the same in series [5]. The experiment in a line: Oral glucose tolerance test in streptozotocin-induced diabetic rats. It is filed as in vivo, Wistar rat. Also noted: AUC of the OGTT: unit not given here. As to conditions: for glucose blood levels in OGTT compared to untreated animals: after 14 days of administration, ANOVA/Bonferroni. As for the experimental part:
as §1, §2
The OGTT was carried out in weeks 3, 4, 5, 6, and 7. Prior to the OGTT, all animal groups fasted overnight for eight hours with free access to water. Each rat was weighed and then received a 2 g/kg glucose overload orally and blood samples were taken from the tail vein [13, 97]. Glucose levels were measured using a glucometer (Accu-Chek Active, Roche, Mannheim, Germany) at 0, 30, 60, 90, 120, and 180 min after glucose administration. The AUC of the OGTT was calculated using the blood glucose concentration over time and the GraphPad Prism 8.0.1 software package (GraphPad Software; Science Inc., San Diego, CA, USA) was used to compare the effectiveness of the treatments.

The conditions of series [6]: cited from earlier work. The source holds these as a separate data set.
In series [7] the target is α-glucosidase from Rominococcus obeum (Blautia obeum, UniProt A5ZY13). The series can be described thus: Enzymatic kinetics of α-glucosidase inhibition (pNPG substrate). It is filed as biochemical. As for the experimental part: The kinetic studies for PTP1B and α-glucosidase were carried out under the same conditions described in the references.
The subject of a further series is humans. Conditions: cited from earlier work.
Series [8] relates to streptozotocin-induced diabetic rats. The experiment in a line: Animal weight, food and water consumption in streptozotocin-induced diabetic rats. It is filed as in vivo, Wistar rat. Conditions: 14 days of treatment, weeks 5 to 7. As for the experimental part: Six female (three for each compound: FC-114 and FC-122) (220 ± 10 g, for the acute toxicity assay) and forty male (215 ± 20 g, for the pharmacologic study) albino Wistar rats were acquired from the Isolation and Animal Facility Unit, Facultad de Estudios Superiores Cuautitlán (FESC), Universidad Nacional Autónoma de México (UNAM). They were kept in standard polypropylene boxes under controlled temperature (24 ± 4 °C) on a 12 h light/dark cycle and provided conventional food (formula 5001, Rat Chow) and purified water ad libitum. […] At the end of the experiment, the animals were taken to the humanitarian endpoint by the intraperitoneal (ip) administration of 75 mg/kg of sodium pentobarbital to perform a necropsy in the bioterium of FESC, UNAM. During the necropsy, blood serum was extracted to quantify glucose, triacylglycerides, cholesterol, and insulin. The study was conducted based on the guidelines of the Declaration of Helsinki and approved by the Institutional Review Board: Internal Committee for the Care and Use of Experimentation Animals (CICUAE, according to the initials in Spanish, C23_02 on March 2023) of the FESC UNAM (Mexico). It complies with the Mexican norm for this matter (NOM-062-ZOO-1999, Technical Specifications for the Production, Care, and Use of Laboratory Animals, SAGARPA), as well as the Guide for the Care and Use of Laboratory Animals of the National Research Council and National Institutes of Health (NIH Publications No. 8023, revised 1978).
as §1, §2

Where [9] appears, read: Week 5 (day 1 of treatment), oral, glibenclamide 0.6, FC-114 51.3, FC-122 49.1, PIO 30, acarbose 54.3 mg/kg/day.
Setting [10] is: Week 6 (day 7 of treatment), same doses.
The mark [11] stands for this setting: Week 7 (day 14 of treatment), same doses.

We go through 5 compounds from paper PMC10454726 (International Journal of Molecular Sciences, 2023).

α-glucosidase from Rominococcus obeum, sequence (A5ZY13 entry or part of it): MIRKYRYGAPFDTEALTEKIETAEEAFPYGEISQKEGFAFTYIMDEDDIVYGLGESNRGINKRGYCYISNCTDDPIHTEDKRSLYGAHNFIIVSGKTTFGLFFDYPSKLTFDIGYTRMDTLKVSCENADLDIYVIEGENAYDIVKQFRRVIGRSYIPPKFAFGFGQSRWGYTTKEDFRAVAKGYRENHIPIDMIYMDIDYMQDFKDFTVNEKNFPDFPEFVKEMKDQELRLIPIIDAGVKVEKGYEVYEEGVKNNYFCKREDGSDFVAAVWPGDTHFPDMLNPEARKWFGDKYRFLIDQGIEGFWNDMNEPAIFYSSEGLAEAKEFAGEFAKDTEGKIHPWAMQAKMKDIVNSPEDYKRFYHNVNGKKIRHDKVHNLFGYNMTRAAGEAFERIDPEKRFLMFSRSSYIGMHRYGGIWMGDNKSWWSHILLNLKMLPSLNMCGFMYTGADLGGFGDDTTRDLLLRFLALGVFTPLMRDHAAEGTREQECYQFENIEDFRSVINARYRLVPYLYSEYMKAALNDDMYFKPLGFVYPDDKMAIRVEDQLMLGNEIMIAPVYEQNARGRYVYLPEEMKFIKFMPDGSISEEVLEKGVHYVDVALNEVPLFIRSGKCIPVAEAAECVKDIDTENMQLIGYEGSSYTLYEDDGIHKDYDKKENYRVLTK

In the case of `CC1(C)[C@@H](O)CC[C@]2(C)[C@H]3C(=O)C=C4[C@@H]5C[C@@](C)(C(=O)O)CC[C@]5(C)CC[C@@]4(C)[C@]3(C)CC[C@@H]12` [GA, glycyrrhetinic acid], in series [1] (100 mg/kg), the insulin levels entry is listed as “increase in insulin levels” and the “plasma TAG, total cholesterol, HDL, VLDL, LDL” value is on record as “restored normal levels”. Further, in [1] (oral 100 mg/kg, compared with glibenclamide 600 μg/kg), the “blood glucose and insulin levels” value is “improved blood glucose and insulin levels”. Besides, the LD50 in series [2] is given as 610 mg/kg. In series [3], this compound registered a cytotoxic concentration (CC50) at 48 h of 62 ± 2 µM.
`COc1ccc(Cl)cc1C(=O)NCCc1ccc(S(=O)(=O)NC(=O)NC2CCCCC2)cc1` [glibenclamide]: the fasting glucose levels result in [4] is “downward trend”. The “AUC of the OGTT” value in series [5] (setting [9]) was 62,022; in [5] (setting [10]), 67,311; in [5] (setting [11]), 50,874. In [5], the “glucose blood levels in OGTT compared to untreated animals” value is “ranked second”.
As to `C[C@H]1O[C@H](O[C@H]2[C@H](O)[C@@H](O)[C@@H](O[C@H]3[C@H](O)[C@@H](O)C(O)O[C@@H]3CO)O[C@@H]2CO)[C@H](O)[C@@H](O)[C@@H]1N[C@H]1C=C(CO)[C@@H](O)[C@H](O)[C@H]1O` (stereo partly shown) [acarbose], in series [6], the “effective doses to cause decreases in blood glucose” value is 75 to 300 mg/kg. Moreover, in series [4], the fasting glucose levels entry is recorded as “downward trend”. In addition, the “AUC of the OGTT” value in series [5] (setting [9]) is 81,327; in series [5] (setting [10]), 81,507; in series [5] (setting [11]), 71,240. The “Inhibition type (α-glucosidase)” value in [7] (Lineweaver-Burk plots) was “competitive”. Also, the inhibition constant Ki in series [7] (substrate pNPG, Lineweaver-Burk) turned out to be 26.8 µM.
Consider `CC1(C)[C@@H](O[C@H]2O[C@H](C(=O)O)[C@@H](O)[C@H](O)[C@H]2O[C@@H]2O[C@H](C(=O)O)[C@@H](O)[C@H](O)[C@H]2O)CC[C@]2(C)[C@H]3C(=O)C=C4[C@@H]5C[C@@](C)(C(=O)O)CC[C@]5(C)CC[C@@]4(C)[C@]3(C)CC[C@@H]12` [GL, glycyrrhizic acid], for which the dose considered safe entry with humans is listed as “less than 100 mg/day”.
For the compound `CCc1ccc(CCOc2ccc(CC3SC(=O)NC3=O)cc2)nc1` (stereo not shown) [PIO, pioglitazone], the “effective doses to cause decreases in blood glucose” value in series [6] is 15 to 45 mg/kg. For the same compound, the “AUC of the OGTT” value in series [5] (setting [9]) is listed as 49,677; in series [5] (setting [10]), 43,584; in series [5] (setting [11]), 40,044. Further, the “glucose blood levels in OGTT compared to untreated animals” value in series [5] is “significantly improved”. Further, the “effectiveness in lowering blood glucose during the glucose tolerance curve (AUC)” value in [5] (week 7) was “most effective”. For the same compound, the “animal weight compared to the untreated group (T2D)” value in series [8] is “difference in weight”.
